{"source": "patent US20250248922A1", "about": "“METHOD OF PREPARING A MASTOCARPUS STELLATUS EXTRACT” (GIVAUDAN SA, priority 2022, published 2025)", "system": "human mature adipocytes", "assay": "Lipolytic activity: glycerol release by 3D culture of human mature adipocytes", "format": "cell-based", "conditions": "72 h of treatment, extract 0.5%", "method": "Mature adipocytes were isolated from subcutaneous adipose tissue after digestion by collagenase. The isolated adipocytes were washed with a wash buffer and encapsulated in a peptidic hydrogel to form 3D adipocytes capsules of 25 μl in size. The formation of adipocytes capsules followed an internal standardized protocol to have about the same number of adipocytes between the capsules. Cells were then incubated for 24 h at 37° C. for stabilization. Treatments with Mastocarpus stellatus extract at 0.5% were initiated at D0 with a medium change; and the culture media were changed every day until 4 days of culture. At each culture media change, the cells secretions were collected, centrifuged and frozen at-80° C. for further analysis. Each culture condition was done in triplicate. The culture media after 72 h of treatment were collected. The concentrations of adiponectin and glycerol were evaluated by ELISA and colorimetric assays, respectively, using specific kits according to the manufacture's recommendations (adiponectin kit, Duoset, DY1065, R&D Systems; Glycerol kit, Randox, GY105)."}
{"smiles": "CC(C)NCC(O)c1ccc(O)c(O)c1", "note": "(centres unmarked) [Isoproterenol]", "values": [{"measurement": "Glycerol release (% of untreated), average", "setting": "isoproterenol 1 μM (positive control)", "value": "295.6 % of untreated"}, {"measurement": "increase of glycerol release", "setting": "isoproterenol 1 μM, vs untreated", "value": "+196%"}]}
